Test results: ChEMBL document CHEMBL1201862, “PubChem BioAssay data set” (2004)
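All cell lines were grown in 96-well plates and treated with compound for 48 hours. Here, GI50 denotes the concentration required for 50% inhibition of growth.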 Activity calls are given as the source filed them. Cut-off read from the data, not from the text of the source: active = GI50 up to about 1.1 µM and inactive = higher.

How the values were obtained:
Assay in all cases: NCI-60 cell line screen, 48 h
[1] = tested on: CAKI-1
[2] = tested on: COLO 205
[3] = tested on: DLD-1
[4] = tested on: EKVX
[5] = tested on: HOP-62
[6] = tested on: IGROV-1
[7] = tested on: M14
[8] = tested on: MOLT-4
[9] = tested on: NCI-H460
[10] = tested on: OVCAR-3
[11] = tested on: OVCAR-8
[12] = tested on: RPMI-8226
[13] = tested on: RXF 393
[14] = tested on: SK-MEL-5
[15] = tested on: SNB-75
[16] = tested on: UACC-257
[17] = tested on: UACC-62
[18] = tested on: UO-31
[19] = tested on: DU-145
[20] = tested on: MDA-MB-435

Measured: GI50

COc1cc(Cl)cc(N(O)C(C)=O)c1OCc1ccccc1
inactive: [1] > 100 µM | [2] > 100 µM | [3] > 100 µM | [4] 30.9 µM | [5] 65.6 µM | [6] > 100 µM | [7] > 100 µM | [8] 50.4 µM | [9] 48.1 µM | [10] 74.6 µM | [11] 70.8 µM | [12] 96.6 µM | [13] > 100 µM | [14] > 100 µM | [15] 24.8 µM | [16] > 100 µM | [17] 49.7 µM | [18] 51.8 µM

COc1ccc(NC(=O)CC/C(CC(=O)C(C)(C)C)=N\NC(=O)C(=O)NN)cc1
inactive: [1] > 100 µM | [2] > 100 µM | [3] > 100 µM | [4] > 100 µM | [5] > 100 µM | [6] > 100 µM | [7] > 100 µM | [8] > 100 µM | [9] > 100 µM | [10] > 100 µM | [12] > 100 µM | [13] > 100 µM | [14] > 100 µM | [15] > 100 µM | [16] > 100 µM | [17] > 100 µM | [18] > 100 µM

Cc1ccc(NC(=O)C(=O)C2C(=O)NC(=O)NC2=O)c(C)c1
inactive: [1] > 100 µM | [2] 13.8 µM | [3] > 100 µM | [4] > 100 µM | [5] > 100 µM | [6] > 100 µM | [7] > 100 µM | [8] > 100 µM | [9] > 100 µM | [10] > 100 µM | [11] > 100 µM | [12] > 100 µM | [13] > 100 µM | [14] > 100 µM | [15] > 100 µM | [16] > 100 µM | [17] > 100 µM | [18] > 100 µM

C[N+](C)(C)CC(=O)N/N=C(\C(=O)Nc1ccc(Cl)cc1)C1C(=O)N(c2ccccc2)N=C1N (stereo not given)
inactive: [1] > 100 µM | [2] > 100 µM | [3] > 100 µM | [4] > 100 µM | [5] > 100 µM | [6] > 100 µM | [7] > 100 µM | [8] > 100 µM | [9] > 100 µM | [10] > 100 µM | [11] > 100 µM | [12] > 100 µM | [13] > 100 µM | [14] > 100 µM | [15] > 100 µM | [16] > 100 µM | [17] > 100 µM | [18] > 100 µM

N#CC(C(=O)/C(=N/NC(=O)c1ccccc1O)C(C#N)c1ccccc1)c1ccccc1 (stereo not given)
inactive: [2] > 100 µM | [3] > 100 µM | [4] > 100 µM | [5] > 100 µM | [6] > 100 µM | [7] > 100 µM | [9] > 100 µM | [10] > 100 µM | [11] > 100 µM | [12] > 100 µM | [13] > 100 µM | [15] > 100 µM | [16] > 100 µM | [17] > 100 µM | [18] > 100 µM

Nc1ccc2ncc(NCc3ccc(F)cc3)nc2c1
inactive: [1] 71.9 µM | [2] > 100 µM | [3] > 100 µM | [4] 62.7 µM | [5] 40.6 µM | [7] > 100 µM | [8] 41.9 µM | [9] 74.6 µM | [10] 38.9 µM | [11] 90.4 µM | [12] 62.2 µM | [13] 34.4 µM | [14] 48.1 µM | [15] 25.4 µM | [16] > 100 µM | [17] 54.2 µM | [18] 16.4 µM

O=c1[nH]cnc2c(COCCO)c[nH]c12
inactive: [1] > 100 µM | [2] > 100 µM | [3] > 100 µM | [4] > 100 µM | [5] > 100 µM | [6] > 100 µM | [7] > 100 µM | [8] > 100 µM | [9] > 100 µM | [10] > 100 µM | [11] > 100 µM | [12] > 100 µM | [13] > 100 µM | [14] > 100 µM | [15] > 100 µM | [16] > 100 µM | [17] > 100 µM | [18] > 100 µM

Cc1c(N)c(C#N)c2n(C)c3ncccc3n2c1=O
inactive: [1] > 100 µM | [2] > 100 µM | [3] > 100 µM | [4] > 100 µM | [5] > 100 µM | [7] > 100 µM | [8] > 100 µM | [9] > 100 µM | [10] > 100 µM | [11] > 100 µM | [12] > 100 µM | [13] > 100 µM | [14] > 100 µM | [15] > 100 µM | [16] > 100 µM | [17] > 100 µM | [18] > 100 µM

CCOC(=O)C1(C(=O)OCC)C(C(C)(C)C)=C(C)c2ccccc21
inactive: [2] 13.3 µM | [3] 11.8 µM | [4] 20.1 µM | [5] 20.3 µM | [6] 14.5 µM | [7] 16.1 µM | [8] 29.9 µM | [9] 11.9 µM | [10] 11.9 µM | [11] 20.6 µM | [12] 7.89 µM | [13] 13.5 µM | [14] 9.59 µM | [15] 19.3 µM | [16] 12.2 µM | [17] 12.9 µM | [18] 15.4 µM

CN(C)CC1CCC(CN(C)C)C1=NO (stereo not given)
inactive: [1] > 100 µM | [2] > 100 µM | [3] > 100 µM | [4] > 100 µM | [5] > 100 µM | [6] > 100 µM | [7] > 100 µM | [8] > 100 µM | [9] > 10 µM | [10] > 100 µM | [11] > 100 µM | [12] > 100 µM | [13] > 100 µM | [14] > 100 µM | [15] > 10 µM | [16] > 100 µM | [17] > 100 µM | [18] > 100 µM

NC(=S)N/N=C/C(=C/Nc1ccccc1)[N+](=O)[O-]
inactive: [1] > 100 µM | [2] > 100 µM | [3] > 100 µM | [4] > 100 µM | [5] > 100 µM | [6] > 100 µM | [7] > 100 µM | [10] > 100 µM | [11] > 100 µM | [12] > 100 µM | [13] > 100 µM | [15] > 100 µM | [16] > 100 µM | [17] > 100 µM

CSC(=Nc1nnc(-c2ccc([N+](=O)[O-])cc2)s1)SC
inactive: [1] 16.7 µM | [2] > 100 µM | [3] 34.7 µM | [19] > 100 µM | [4] 54.5 µM | [5] 20.1 µM | [6] 27.9 µM | [7] > 90.6 µM | [20] > 67.1 µM | [8] > 100 µM | [9] > 89.1 µM | [10] 57.3 µM | [11] 34.4 µM | [12] > 100 µM | [13] 20 µM | [14] 55.7 µM | [15] 11.9 µM | [16] > 93.1 µM | [17] 25.8 µM | [18] 27.9 µM

c1cncc(C2c3[nH]c4ccccc4c3CCN2CCCN2CCCCC2)c1 (stereo not given)
inactive: [1] > 100 µM | [2] 84.3 µM | [3] > 100 µM | [4] > 100 µM | [5] > 100 µM | [6] > 100 µM | [7] 18.6 µM | [8] > 100 µM | [9] > 100 µM | [10] 51.1 µM | [11] > 100 µM | [12] > 100 µM | [13] 53.6 µM | [14] 37.2 µM | [15] > 100 µM | [16] 60.7 µM | [17] 92.9 µM | [18] 81.1 µM
